This assay has as its system L1210 leukemia ip in BDF1 mice, survival T/C. Briefly: NCI In Vivo Anticancer Drug Screen. Data for tumor model L1210 Leukemia (intraperitoneal) in B6D2F1 (BDF1) mice. The settings on record: endpoint: mean survival time, higher = longer survival. The method in brief: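 Transplantable tumor model; survival measured in treated vs vehicle control mice. Value = treated/control.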

Where [1] appears, read: dose: 25.0 mg/kg/injection, schedule: Q01DX009 (ip), vehicle: saline.
The mark [2] stands for this setting: dose: 50.0 mg/kg/injection, schedule: Q01DX009 (ip), vehicle: saline.
The mark [3] stands for this setting: dose: 100.0 mg/kg/injection, schedule: Q04DX003 (ip), vehicle: saline.
Where [4] appears, read: dose: 100.0 mg/kg/injection, schedule: Q01DX001 (ip), vehicle: carboxymethylcellulose (CMC).
Setting [5] is: dose: 200.0 mg/kg/injection, schedule: Q01DX001 (ip), vehicle: carboxymethylcellulose (CMC).
The mark [6] stands for this setting: dose: 400.0 mg/kg/injection, schedule: Q01DX001 (ip), vehicle: carboxymethylcellulose (CMC).
Where [7] appears, read: dose: 100.0 mg/kg/injection, schedule: Q01DX009 (ip), vehicle: saline.
Setting [8] is: dose: 200.0 mg/kg/injection, schedule: Q01DX009 (ip), vehicle: saline.
Setting [9] is: dose: 400.0 mg/kg/injection, schedule: Q01DX009 (ip), vehicle: saline.
The mark [10] stands for this setting: dose: 100.0 mg/kg/injection, schedule: Q04DX003 (ip), vehicle: Klucel (hydroxypropylcellulose) (HPC).
Where [11] appears, read: dose: 200.0 mg/kg/injection, schedule: Q04DX003 (ip), vehicle: Klucel (hydroxypropylcellulose) (HPC).
The mark [12] stands for this setting: dose: 400.0 mg/kg/injection, schedule: Q04DX003 (ip), vehicle: Klucel (hydroxypropylcellulose) (HPC).

Inconclusive results and toxic doses are left out. Square brackets hold non-standard residues; d marks the D form. Peptide text beside a SMILES is read from it. ξ: configuration not given here. ξF = NC(Cc1ccccc1)C(=O)O

As to `c1ccc2c[s+]ccc2c1`, the T/C reads like this: (dose: 100.0 mg/kg/injection, schedule: Q04DX002 (ip), vehicle: saline) 90 % of control; (dose: 200.0 mg/kg/injection, schedule: Q04DX002 (ip), vehicle: saline) 94 % of control; (dose: 400.0 mg/kg/injection, schedule: Q04DX002 (ip), vehicle: saline) 103 % of control.
Turning to `CC1(Cl)C(=O)NC(=O)C1Cl` (centres undefined), the T/C runs as follows: (dose: 3.12 mg/kg/injection, schedule: Q01DX009 (ip), vehicle: saline) 92 % of control; (dose: 6.25 mg/kg/injection, schedule: Q01DX009 (ip), vehicle: saline) 87 % of control; under setting [1], 87 % of control; (dose: 25.0 mg/kg/injection, schedule: Q04DX003 (ip), vehicle: saline) 103 % of control; under setting [2], 92 % of control; (dose: 50.0 mg/kg/injection, schedule: Q04DX003 (ip), vehicle: saline) 97 % of control. For the same molecule, the T/C under setting [3] is 110 % of control.
As to `CCS(=O)(=O)C(CCC(C)C)CCC(C)C`, the T/C is, setting by setting: under setting [4], 102 % of control; under setting [5], 109 % of control; under setting [6], 104 % of control.
As for `C#CC(C)ON1C(=O)c2ccccc2C1=O` (centres undefined), the T/C (dose: 100.0 mg/kg/injection, schedule: Q01DX009 (ip), vehicle: saline sonified) was 96 % of control; the T/C (dose: 100.0 mg/kg/injection, schedule: Q04DX003 (ip), vehicle: saline with Tween-80) was 115 % of control; the T/C (dose: 200.0 mg/kg/injection, schedule: Q01DX009 (ip), vehicle: saline sonified) is 97 % of control; the T/C (dose: 200.0 mg/kg/injection, schedule: Q04DX003 (ip), vehicle: saline with Tween-80) was 114 % of control; the T/C (dose: 400.0 mg/kg/injection, schedule: Q01DX009 (ip), vehicle: saline sonified) was 104 % of control; the T/C (dose: 400.0 mg/kg/injection, schedule: Q04DX003 (ip), vehicle: saline with Tween-80) was 109 % of control.
Regarding `C(=Nc1cccnc1)c1c[nH]c2ccccc12`, the T/C runs as follows: (dose: 100.0 mg/kg/injection, schedule: Q01DX009 (ip), vehicle: Klucel (hydroxypropylcellulose) (HPC)) 95 % of control; (dose: 200.0 mg/kg/injection, schedule: Q01DX009 (ip), vehicle: Klucel (hydroxypropylcellulose) (HPC)) 86 % of control; (dose: 400.0 mg/kg/injection, schedule: Q01DX009 (ip), vehicle: Klucel (hydroxypropylcellulose) (HPC)) 89 % of control.
Consider `CCCCCCCCCCCCCCCCCCOc1ccc(Cl)cc1Cl`, for which the T/C is 98 % of control (dose: 100.0 mg/kg/injection, schedule: Q04DX002 (ip), vehicle: other); 102 % of control (dose: 200.0 mg/kg/injection, schedule: Q04DX002 (ip), vehicle: other); 102 % of control (dose: 400.0 mg/kg/injection, schedule: Q04DX002 (ip), vehicle: other).
Take `O=C(Oc1ccccc1[N+](=O)[O-])c1ccc(Cl)c(Cl)c1`: the T/C was 90 % of control (dose: 100.0 mg/kg/injection, schedule: Q04DX002 (ip), vehicle: Klucel (hydroxypropylcellulose) (HPC)); 97 % of control (dose: 200.0 mg/kg/injection, schedule: Q04DX002 (ip), vehicle: Klucel (hydroxypropylcellulose) (HPC)); 100 % of control (dose: 400.0 mg/kg/injection, schedule: Q04DX002 (ip), vehicle: Klucel (hydroxypropylcellulose) (HPC)).
As for `O=C(NCc1cnccn1)Nc1ccccc1`, the T/C under setting [1] is 101 % of control; the T/C under setting [2] is 87 % of control; the T/C under setting [7] is 108 % of control; the T/C under setting [8] is 102 % of control; the T/C under setting [9] was 103 % of control.
In the case of `Nc1nc(N)c2nc(CNc3ccc(C(=O)NCCCC(=O)O)cc3)cnc2n1` (tested in a mixture with another compound), the T/C reads like this: (dose: 12.5 mg/kg/injection, schedule: Q01DX001 (ip), vehicle: Klucel (hydroxypropylcellulose) (HPC)) 92 % of control; (dose: 25.0 mg/kg/injection, schedule: Q01DX001 (ip), vehicle: Klucel (hydroxypropylcellulose) (HPC)) 97 % of control; (dose: 100.0 mg/kg/injection, schedule: Q01DX001 (ip), vehicle: Klucel (hydroxypropylcellulose) (HPC)) 108 % of control.
For `CC(C)Cn1cnc2c(Sc3c([N+](=O)[O-])ncn3C)nc(N)nc21`, the T/C is 104 % of control (dose: 6.0 mg/kg/injection, schedule: Q01DX015 (ip), vehicle: carboxymethylcellulose (CMC)); 111 % of control (dose: 12.0 mg/kg/injection, schedule: Q01DX015 (ip), vehicle: carboxymethylcellulose (CMC)); 117 % of control (dose: 25.0 mg/kg/injection, schedule: Q01DX015 (ip), vehicle: carboxymethylcellulose (CMC)); 114 % of control (dose: 50.0 mg/kg/injection, schedule: Q01DX001 (ip), vehicle: carboxymethylcellulose (CMC)); 117 % of control under setting [4]; 119 % of control under setting [5]. Besides, the T/C by setting is: under setting [6], 162 % of control; (dose: 600.0 mg/kg/injection, schedule: Q01DX001 (ip), vehicle: carboxymethylcellulose (CMC)) 170 % of control.
For the molecule `O=S(=O)(F)c1cccc(C[P+](c2ccccc2)(c2ccccc2)c2ccccc2)c1`, the T/C reads like this: (dose: 25.0 mg/kg/injection, schedule: Q01DX009 (ip), vehicle: saline with Tween-80) 95 % of control; (dose: 50.0 mg/kg/injection, schedule: Q01DX009 (ip), vehicle: saline with Tween-80) 101 % of control; (dose: 100.0 mg/kg/injection, schedule: Q04DX003 (ip), vehicle: acetone) 94 % of control.
With `CCCCCCCCCCCC[N+]1(CCCCCCCCCCCC)CCCC(C)C1` (centres undefined), the T/C by setting is: (dose: 3.0 mg/kg/injection, schedule: Q04DX002 (ip), vehicle: Klucel (hydroxypropylcellulose) (HPC)) 109 % of control; (dose: 6.0 mg/kg/injection, schedule: Q04DX002 (ip), vehicle: Klucel (hydroxypropylcellulose) (HPC)) 87 % of control.
`O=C(O)CCc1c2ccc(=O)cc-2oc2cc(O)ccc12`: the T/C by setting is: under setting [10], 91 % of control; under setting [11], 91 % of control; under setting [12], 92 % of control.
On to `C[n+]1ccn(CCCl)c1`, for which the T/C by setting is: (dose: 25.0 mg/kg/injection, schedule: Q01DX Z (ip), vehicle: saline) 96 % of control; (dose: 50.0 mg/kg/injection, schedule: Q01DX Z (ip), vehicle: saline) 93 % of control; (dose: 100.0 mg/kg/injection, schedule: Q01DX Z (ip), vehicle: saline) 96 % of control.
`COc1ccc(-c2ccc(CCNC(C)=O)cc2)cc1Cl`: the T/C was 94 % of control under setting [4], 86 % of control under setting [5] and 89 % of control under setting [6].
Take `NC(Cc1ccccc1)C(=O)NCC(=O)O` (centres undefined) (H-[ξF]-Gly-OH): the T/C is 105 % of control under setting [7]; 98 % of control under setting [3]; 105 % of control under setting [8]; 97 % of control (dose: 200.0 mg/kg/injection, schedule: Q04DX003 (ip), vehicle: saline); 102 % of control under setting [9]; 97 % of control (dose: 400.0 mg/kg/injection, schedule: Q04DX003 (ip), vehicle: saline).
For the molecule `CC(=O)CC(=O)N(N=O)c1ccccc1C`, the T/C is, setting by setting: (dose: 100.0 mg/kg/injection, schedule: Q01DX001 (ip), vehicle: saline) 104 % of control; (dose: 200.0 mg/kg/injection, schedule: Q01DX001 (ip), vehicle: saline) 95 % of control.
Turning to `CCOc1ccc2c(ccc(C)[n+]2C)c1`, the T/C was 108 % of control (dose: 75.0 mg/kg/injection, schedule: Q01DX001 (ip), vehicle: carboxymethylcellulose (CMC)) and 109 % of control (dose: 150.0 mg/kg/injection, schedule: Q01DX001 (ip), vehicle: carboxymethylcellulose (CMC)).
As for `COc1ccc(OC)c(/C=C/C(=O)c2ccc(Cl)cc2)c1`, the T/C is 94 % of control under setting [10], 94 % of control under setting [11] and 97 % of control under setting [12].
Turning to `Cc1nc(N)[nH]c(=O)c1CCCNS(=O)(=O)c1ccc(CNC(=O)CBr)cc1`, the T/C reads like this: (dose: 37.5 mg/kg/injection, schedule: Q01DX001 (ip), vehicle: Klucel (hydroxypropylcellulose) (HPC)) 107 % of control; (dose: 75.0 mg/kg/injection, schedule: Q01DX001 (ip), vehicle: Klucel (hydroxypropylcellulose) (HPC)) 94 % of control; (dose: 150.0 mg/kg/injection, schedule: Q01DX001 (ip), vehicle: Klucel (hydroxypropylcellulose) (HPC)) 96 % of control.

Source of the values: PubChem BioAssay AID248 (DTP/NCI, 2004).
